# Where a name gives a salt, the structure may show the parent alone. Read-outs that look alike come from different tables or passages of the source.
# Assays:
# [1] = system: influenza A virus (A/PR/8/34); experiment: microbe, parasite or virus in culture; format: cell-based
# [2] = system: A/PR/8/34 influenza virus; experiment: microbe, parasite or virus in culture; format: cell-based
# [3] = Influenza A virus, PR/8, MDCK, CPE assay, A/PR/8/34 infected MDCK cells, class symbols, read-out: IC50 (mean all)
# [4] = Influenza A virus, PR/8, MDCK, bDNA assay, A/PR/8/34 influenza virus replication in MDCK cells, class symbols, read-out: EC50 (mean all)
# [5] = CPE assay, A/PR/8/34 infected MDCK cells, class symbols, read-out: IC50 (mean all)
# [6] = bDNA assay, A/PR/8/34 influenza virus replication in MDCK cells, class symbols, read-out: EC50 (mean all)
# [7] = mean all, MDCK cells infected with A/PR/8/34, cell protection (CPE), read-out: IC50
# [8] = mean all, bDNA viral RNA in MDCK cells infected with A/PR/8/34, read-out: EC50
Structure (SMILES),"IC50 [1, 3]","EC50 [2, 4]","IC50 [1, 7]","EC50 [2, 8]",also measured
"O=C(N[C@@H]1CCC[C@H](Nc2nc(-c3c[nH]c4ncc(Cl)cc34)ncc2F)C1)C1CCCO1 (stereo partly drawn) [Compound 638, N-[1R,3S)-3-[[2-(5-chloro-1H-pyrrolo[2,3-b]pyridin-3-yl)-5-fluoro-pyrimidin-4-yl]amino]cyclohexyl]tetrahydrofuran-2-carboxamide hydrochloride]",< 5 µM,< 5 µM,–,–,–
"O=C(N[C@@H]1CCC[C@H](Nc2nc(-c3c[nH]c4ncc(Cl)cc34)ncc2F)C1)C1CCNCC1 [Compound 639, N-[(1R,3S)-3-[[2-(5-chloro-1H-pyrrolo[2,3-b]pyridin-3-yl)-5-fluoro-pyrimidin-4-yl]amino]cyclohexyl]piperidine-4-carboxamide bishydrochloride]",–,–,–,–,"IC50 ([1]; Influenza A virus, PR/8, MDCK, read-out: IC50 (mean all)): > 10 µM; EC50 ([2]; Influenza A virus, PR/8, MDCK, read-out: EC50 (mean all)): > 3.3 µM"
"CC(O)CC(=O)N[C@@H]1CCC[C@H](Nc2nc(-c3c[nH]c4ncc(Cl)cc34)ncc2F)C1 (stereo partly drawn) [Compound 640, N-[(1R,3S)-3-[[2-(5-chloro-1H-pyrrolo[2,3-b]pyridin-3-yl)-5-fluoro-pyrimidin-4-yl]amino]cyclohexyl]-3-hydroxy-butanamide hydrochloride]",< 5 µM,< 5 µM,–,–,–
"CC(O)C(=O)N[C@@H]1CCC[C@H](Nc2nc(-c3c[nH]c4ncc(Cl)cc34)ncc2F)C1 (stereo partly drawn) [Compound 642, N-[(1R,3S)-3-[[2-(5-chloro-1H-pyrrolo[2,3-b]pyridin-3-yl)-5-fluoro-pyrimidin-4-yl]amino]cyclohexyl]-2-hydroxy-propanamide hydrochloride]",< 5 µM,< 5 µM,–,–,–
OCC1(O)CCCC(Nc2nc(-c3c[nH]c4ncc(Cl)cc34)ncc2F)C1 (centres unmarked) [Compound 646],< 5 µM,< 5 µM,–,–,–
O=C(N[C@@H]1CCC[C@H](Nc2nc(-c3c[nH]c4ncc(Cl)cc34)ncc2F)C1)N1CCOCC1 [Compound 647],< 5 µM,< 5 µM,–,–,–
O=C(N[C@@H]1CCC[C@H](Nc2nc(-c3c[nH]c4ncc(Cl)cc34)ncc2F)C1)OCC1CCOC1 (some centres unmarked) [Compound 648],< 5 µM,< 5 µM,–,–,–
O=C(N[C@@H]1CCC[C@H](Nc2nc(-c3c[nH]c4ncc(Cl)cc34)ncc2F)C1)O[C@H]1CCOC1 [Compound 649],< 5 µM,< 5 µM,–,–,–
"CC(C)(CO)C(=O)N[C@@H]1CCC[C@H](Nc2nc(-c3c[nH]c4ncc(Cl)cc34)ncc2F)C1 [Compound 650, N-[(1R,3S)-3-[[2-(5-chloro-1H-pyrrolo[2,3-b]pyridin-3-yl)-5-fluoro-pyrimidin-4-yl]amino]cyclohexyl]-3-hydroxy-2,2-dimethyl-propanamide hydrochloride]",< 5 µM,< 5 µM,–,–,–
"O=C(N[C@@H]1CCC[C@H](Nc2nc(-c3c[nH]c4ncc(Cl)cc34)ncc2F)C1)C1CCCCO1 (stereo partly drawn) [Compound 651, N-[(1R,3S)-3-[[2-(5-chloro-1H-pyrrolo[2,3-b]pyridin-3-yl)-5-fluoro-pyrimidin-4-yl]amino]cyclohexyl]tetrahydropyran-2-carboxamide hydrochloride]",< 5 µM,< 5 µM,–,–,–
"O=C(N[C@@H]1CCC[C@H](Nc2nc(-c3c[nH]c4ncc(Cl)cc34)ncc2F)C1)C1CCOC1 (stereo partly drawn) [Compound 652, N-[(1R,3S)-3-[[2-(5-chloro-1H-pyrrolo[2,3-b]pyridin-3-yl)-5-fluoro-pyrimidin-4-yl]amino]cyclohexyl]tetrahydrofuran-3-carboxamide hydrochloride]",< 5 µM,< 5 µM,–,–,–
N#Cc1cnc(-c2c[nH]c3ncc(Cl)cc23)nc1N[C@H]1CCCN(CC(N)=O)C1 [Compound 654],5 to 20 µM,5 to 10 µM,–,–,–
Cc1ccc(S(=O)(=O)n2cc(-c3ncc(F)c(N[C@H]4CCCC(C)(O)C4)n3)c3cc(Cl)cnc32)cc1 (some centres unmarked) [Compound 655],–,–,–,–,"IC50 [1, 5]: < 5 µM; EC50 [2, 6]: < 5 µM"
Cc1ccc(S(=O)(=O)n2cc(-c3ncc(F)c(N[C@H]4CCCC(C)(O)C4)n3)c3cc(Cl)cnc32)cc1 (some centres unmarked) [Compound 656],–,–,–,–,"IC50 [1, 5]: < 5 µM; EC50 [2, 6]: < 5 µM"
OC[C@H]1CC(Nc2nc(-c3c[nH]c4ncc(Cl)cc34)ncc2F)[C@H](O)[C@@H]1O (some centres unmarked) [Compound 657],> 10 µM,> 3.3 µM,–,–,–
O=C(C1CCCCO1)N1CCCC(Nc2nc(-c3c[nH]c4ncc(Cl)cc34)ncc2F)C1 (centres unmarked) [Compound 658],–,–,–,–,"IC50 [1, 5]: < 5 µM; EC50 [2, 6]: < 5 µM"
O=C(C1CCCO1)N1CCCC(Nc2nc(-c3c[nH]c4ncc(Cl)cc34)ncc2F)C1 (centres unmarked) [Compound 660],–,–,–,–,"IC50 [1, 5]: < 5 µM; EC50 [2, 6]: < 5 µM"
N#Cc1cnc2[nH]cc(-c3ncc(F)c(NC4CCCN(CC(N)=O)C4)n3)c2c1 (centres unmarked) [Compound 661],–,–,–,–,"IC50 [1, 5]: < 5 µM; EC50 [2, 6]: < 5 µM"
Fc1cnc(-c2c[nH]c3ncc(Cl)cc23)nc1NC1CCCN(CC2CCCCO2)C1 (centres unmarked) [Compound 663],–,–,–,–,"IC50 [1, 5]: < 5 µM; EC50 [2, 6]: < 5 µM"
N#CCN1CCC[C@H](Nc2nc(-c3c[nH]c4ncc(Cl)cc34)ncc2F)C1 [Compound 669],< 5 µM,< 5 µM,–,–,–
CCOC(=O)C1=CC(Nc2nc(-c3c[nH]c4ncc(Cl)cc34)ncc2F)[C@@H](NC(C)=O)[C@H](OC(CC)CC)C1 (some centres unmarked) [Compound 670],> 10 µM,> 3.3 µM,–,–,–
CCC(CC)O[C@@H]1CC(C(=O)O)=CC(Nc2nc(-c3c[nH]c4ncc(Cl)cc34)ncc2F)[C@H]1NC(C)=O (some centres unmarked) [Compound 671],> 10 µM,> 3.3 µM,–,–,–
CC(C)(O)c1nc(-c2c[nH]c3ncc(Cl)cc23)nc(NC2CCCCC2C(=O)O)c1F (centres unmarked) [Compound 673],–,–,< 5 µM,< 5 µM,–
Nc1nc(-c2c[nH]c3ncc(Cl)cc23)nc(NC2CCCCC2C(=O)O)c1F (centres unmarked) [Compound 674],–,–,< 5 µM,< 5 µM,–
COC(=O)c1cnc2[nH]cc(-c3ncc(F)c(NC4CCCN(CC(N)=O)C4)n3)c2c1 (centres unmarked) [Compound 675],–,–,> 10 µM,> 3.3 µM,–

Structure (SMILES),"IC50 [1, 3]","EC50 [2, 4]","IC50 [1, 7]","EC50 [2, 8]",also measured
Fc1cnc(-c2c[nH]c3ncc(Cl)cc23)nc1NC1CCCN(CC2CCCOC2)C1 (centres unmarked) [Compound 676],–,–,< 5 µM,< 5 µM,–
CC1(C(=O)O)CCCCC1Nc1nc(-c2c[nH]c3ncc(Cl)cc23)ncc1F (centres unmarked) [Compound 677],–,–,< 5 µM,< 5 µM,–
CC1(C(=O)O)CCCCC1Nc1nc(-c2c[nH]c3ncc(F)cc23)ncc1F (centres unmarked) [Compound 678],–,–,< 5 µM,< 5 µM,–
CC(C)(O)C(=O)NC1CCCC(Nc2nc(-c3c[nH]c4ncc(Cl)cc34)ncc2F)C1 (centres unmarked) [Compound 681],–,–,< 5 µM,< 5 µM,–
CC1(C(=O)NC2CCCC(Nc3nc(-c4c[nH]c5ncc(Cl)cc45)ncc3F)C2)CCCO1 (centres unmarked) [Compound 682],–,–,< 5 µM,< 5 µM,–
CCC(=O)NC1CCCC(Nc2nc(-c3c[nH]c4ncc(Cl)cc34)ncc2F)C1 (centres unmarked) [Compound 683],–,–,< 5 µM,< 5 µM,–
O=C(NC1CCCC(Nc2nc(-c3c[nH]c4ncc(Cl)cc34)ncc2F)C1)C1CC1 (centres unmarked) [Compound 684],–,–,< 5 µM,< 5 µM,–
CC(C)C(=O)NC1CCCC(Nc2nc(-c3c[nH]c4ncc(Cl)cc34)ncc2F)C1 (centres unmarked) [Compound 685],–,–,< 5 µM,< 5 µM,–
O=C(O)C1CCCCC1Nc1nc(-c2c[nH]c3ncc(Cl)cc23)nc(C(O)CO)c1F (centres unmarked) [Compound 687],–,–,< 5 µM,> 3.3 µM,–
COC(=O)NC1CCCC(Nc2nc(-c3c[nH]c4ncc(Cl)cc34)nc(C(C)(C)C)c2F)C1 (centres unmarked) [Compound 688],–,–,< 5 µM,< 5 µM,–
COP(=O)(CN1CCC[C@H](Nc2nc(-c3c[nH]c4ncc(Cl)cc34)ncc2F)C1)OC [Compound 690],–,–,–,–,"IC50 ([1]; Influenza A virus, PR/8, MDCK, read-out: IC50): < 5 µM; EC50 ([2]; Influenza A virus, PR/8, MDCK): < 5 µM"
CC(C)(C)c1nc(-c2c[nH]c3ncc(Cl)cc23)nc(NC2CCCCC2(C)C(=O)O)c1F (centres unmarked) [Compound 691],–,–,< 5 µM,< 5 µM,–
O=C(O)C1CCCC(Nc2nc(-c3c[nH]c4ncc(Cl)cc34)ncc2F)C1 (centres unmarked) [Compound 696],–,–,< 5 µM,< 5 µM,–
CC(C)OC(=O)NC1CCCC(Nc2nc(-c3c[nH]c4ncc(Cl)cc34)ncc2F)C1 (centres unmarked) [Compound 697],–,–,< 5 µM,< 5 µM,–
CCCOC(=O)NC1CCCC(Nc2nc(-c3c[nH]c4ncc(Cl)cc34)ncc2F)C1 (centres unmarked) [Compound 698],–,–,< 5 µM,< 5 µM,–
CC(C)COC(=O)NC1CCCC(Nc2nc(-c3c[nH]c4ncc(Cl)cc34)ncc2F)C1 (centres unmarked) [Compound 699],–,–,< 5 µM,< 5 µM,–
CCOC(=O)NC1CCCC(Nc2nc(-c3c[nH]c4ncc(Cl)cc34)ncc2F)C1 (centres unmarked) [Compound 700],–,–,< 5 µM,< 5 µM,–
CC#CCOC(=O)NC1CCCC(Nc2nc(-c3c[nH]c4ncc(Cl)cc34)ncc2F)C1 (centres unmarked) [Compound 701],–,–,< 5 µM,< 5 µM,–
C#CCOC(=O)NC1CCCC(Nc2nc(-c3c[nH]c4ncc(Cl)cc34)ncc2F)C1 (centres unmarked) [Compound 702],–,–,< 5 µM,< 5 µM,–
COCC(=O)NC1CCCC(Nc2nc(-c3c[nH]c4ncc(F)cc34)ncc2F)C1 (centres unmarked) [Compound 703],–,–,< 5 µM,< 5 µM,–
O=C(NC1CCCC(Nc2nc(-c3c[nH]c4ncc(F)cc34)ncc2F)C1)C1CCCCO1 (centres unmarked) [Compound 704],–,–,< 5 µM,< 5 µM,–
COC(=O)NC1CCCC(Nc2nc(-c3c[nH]c4ncc(F)cc34)ncc2F)C1 (centres unmarked) [Compound 705],–,–,< 5 µM,< 5 µM,–
COCC(=O)NC1CCCC(Nc2nc(-c3c[nH]c4ncc(Cl)cc34)nc(C(C)(C)O)c2F)C1 (centres unmarked) [Compound 715],–,–,< 5 µM,< 5 µM,–
COC(=O)NC1CCCC(Nc2nc(-c3c[nH]c4ncc(Cl)cc34)nc(C(C)(C)O)c2F)C1 (centres unmarked) [Compound 716],–,–,< 5 µM,< 5 µM,–
